# Like-named read-outs stand apart in the source and are kept apart here.
# Assays:
# [1] = system: prostate cancer cell lines (e.g. DU145/TXR); assay: Cell based assay, cell viability (CellTiter-Glo), prostate cancer cell lines; conditions: Homo sapiens, 72 hours treatment, final concentration 0 to 2 μM
# Experimental: (§1) Commercially available bladder cancer, prostate cancer, lung cancer, breast cancer, blood cancer, pancreatic cancer, colorectal cancer, brain cancer, neuroblastoma, melanoma, liver cancer, cervical carcinoma, ovarian cancer, renal cancer, and papilloma cell lines were each treated with trypsin-EDTA and cultured, followed by being seeded in each well of a 96 well plate. After 24 hours of treatment at constant temperature, the respective cells were treated with the candidate compound so that a final concentration became 0 to 2 μM. The treated cells were additionally cultured for 72 hours, and cell viability was measured by using an ATP detection method (CellTiter-Glo® Luminescent Cell Viability Assay, Promega).
# brain cancer cell lines = assay: Cell based assay, cell viability (CellTiter-Glo), brain cancer cell lines; conditions: Homo sapiens
# Experimental: as §1, with “After 24 hours of treatment at constant temperature, the respective cells were treated with the candidate compound so that a final concentration became 0 to 2 μM.” left out
# [2] = CWR22 cells, read-out: IC50, prostate cancer cell line CWR22
# [3] = DU-145, DU145/TXR cells, read-out: IC50, prostate cancer cell line DU145/TXR
# [4] = DU-145, DU145 cells, read-out: IC50, prostate cancer cell line DU145
# [5] = LNcap cells, read-out: IC50, prostate cancer cell line LNcap
# [6] = PC-3 cells, read-out: IC50, prostate cancer cell line PC-3
# [7] = U138-MG, U-138 MG cell line, read-out: IC50, Brain cancer cell line U-138 MG
# [8] = T98G cell line, read-out: IC50, Brain cancer cell line T98G
# [9] = U-251 MG cell line, read-out: IC50, Brain cancer cell line U-251 MG
Compound,"IC50 [1, 2] [µM]","IC50 [1, 3] [µM]","IC50 [1, 4] [µM]","IC50 [1, 5] [µM]","IC50 [1, 6] [µM]",IC50 (brain cancer cell lines; [7]) [µM],IC50 (brain cancer cell lines; [8]) [µM],IC50 (brain cancer cell lines; [9]) [µM]
"CSc1[nH]c2c(Br)ccc(Cl)c2c(=O)c1C(C)=O [Compound 2, 3-acetyl-8-bromo-5-chloro-2-(methylthio)quinolin-4(1H)-one]",> 2,> 2,> 2,> 2,> 2,> 10,> 10,> 2
"CC(=O)c1c(SCc2ccccc2)[nH]c2c(Br)ccc(Cl)c2c1=O [Compound 3, 3-acetyl-2-(benzylthio)-8-bromo-5-chloroquinolin-4(1H)-one]",> 2,> 2,> 2,> 2,> 2,> 10,> 10,> 2
CC(=O)c1c([S+]([O-])Cc2ccccc2)nc2c(Br)ccc(Cl)c2c1O (stereo not drawn) [Compound 4],1.67,1.19,1.41,> 2,1.52,1.81,> 10,1.22
"CSc1c(C(C)=O)c(=O)c2c(Cl)ccc(Br)c2n1C [Compound 5, 3-acetyl-8-bromo-5-chloro-1-methyl-2-(methylthio)quinolin-4(1H)-one]",> 2,> 2,> 2,> 2,> 2,> 10,> 10,> 2
"CC(=O)c1c([S+](C)[O-])[nH]c2c(Cl)ccc(Cl)c2c1=O (stereo not drawn) [Compound 6, 3-acetyl-5,8-dichloro-2-(methylsulfinyl)quinolin-4(1H)-one]",1.99,1.54,1.8,> 2,1.68,> 2,> 10,> 2
"CSc1c(C(C)=O)c(=O)c2cc(F)ccc2n1C [Compound 7, 3-acetyl-6-fluoro-1-methyl-2-(methylthio)quinolin-4(1H)-one]",> 2,> 2,> 2,> 2,> 2,> 10,> 10,> 2
"CC(=O)c1c(SCc2ccc(Cl)cc2)[nH]c2c(Br)ccc(Cl)c2c1=O [Compound 10, 3-acetyl-8-bromo-5-chloro-2-((4-chlorobenzyl)thio)quinolin-4(1H)-one]",> 2,> 2,> 2,> 2,> 2,> 10,> 10,> 2
"CC(=O)c1c([S+]([O-])Cc2ccc(Cl)cc2)[nH]c2c(Br)ccc(Cl)c2c1=O (stereo not drawn) [Compound 11, 3-acetyl-8-bromo-5-chloro-2-((4-chlorobenzyl)sulfinyl)quinolin-4(1H)-one]",> 2,1.81,> 2,> 2,> 2,> 2,> 10,> 2
"COc1ccccc1Sc1[nH]c2c(Br)ccc(Cl)c2c(=O)c1C(C)=O [Compound 14, 3-acetyl-8-bromo-5-chloro-2-((2-methoxyphenyl)thio)quinolin-4(1H)-one]",> 2,> 2,> 2,> 2,> 2,> 10,> 10,> 2
"COc1ccccc1[S+]([O-])c1[nH]c2c(Br)ccc(Cl)c2c(=O)c1C(C)=O (stereo not drawn) [Compound 15, 3-acetyl-8-bromo-5-chloro-2-((2-methoxyphenyl)sulfinyl)quinolin-4(1H)-one]",> 2,1.88,> 2,> 2,–,> 2,> 10,> 2
"CC(=O)c1c(Sc2ccc(Br)cc2)[nH]c2c(Br)ccc(Cl)c2c1=O [Compound 16, 3-acetyl-8-bromo-2-((4-bromophenyl)thio)-5-chloroquinolin-4(1H)-one]",> 2,> 2,> 2,> 2,> 2,> 10,> 10,> 2
"CSc1c(C(C)=O)c(=O)c2c(Cl)ccc(Br)c2n1C(C)=O [Compound 18, 1,1′-(8-bromo-5-chloro-2-(methylthio)-4-oxoquinoline-1,3(4H)-diyl)bis(ethan-1-one)]",> 2,> 2,> 2,> 2,> 2,> 10,> 10,> 2
"CC(=O)c1c([S+](C)[O-])n(C(C)=O)c2c(Br)ccc(Cl)c2c1=O (stereo not drawn) [Compound 19, 1,1′-(8-bromo-5-chloro-2-(methylsulfinyl)-4-oxoquinoline-1,3(4H)-diyl)bis(ethan-1-one)]",> 2,> 2,> 2,> 2,> 2,> 10,> 10,> 2
"CC(=O)c1c([S+]([O-])Cc2ccccc2)n(C(=O)c2ccc(Br)cc2)c2c(Br)ccc(Cl)c2c1=O (stereo not drawn) [Compound 20, 3-acetyl-2-(benzylsulfinyl)-8-bromo-1-(4-bromobenzoyl)-5-chloroquinolin-4(1H)-one]",> 2,> 2,> 2,> 2,> 2,> 10,> 10,> 2
"CC(=O)c1c(S(C)(=O)=O)n(C(=O)c2ccc(Br)cc2)c2c(Br)ccc(Cl)c2c1=O [Compound 21, 3-acetyl-8-bromo-1-(4-bromobenzoyl)-5-chloro-2-(methylsulfonyl)quinolin-4(1H)-one]",> 2,> 2,> 2,> 2,> 2,> 10,> 10,> 2
"CC(=O)c1c([S+](C)[O-])n(Cc2ccc(F)c(Cl)c2)c2c(Br)ccc(Cl)c2c1=O (stereo not drawn) [Compound 22, 3-acetyl-8-bromo-5-chloro-1-(3-chloro-4-fluorobenzyl)-2-(methylsulfinyl)quinolin-4(1H)-one]",> 2,> 2,> 2,> 2,> 2,> 10,> 10,> 2
"CC(=O)c1c(SCc2ccccc2)n(C(=O)c2ccc(Br)cc2)c2c(Br)ccc(Cl)c2c1=O [Compound 23, 3-acetyl-2-(benzylthio)-8-bromo-1-(4-bromobenzoyl)-5-chloroquinolin-4(1H)-one]",> 2,> 2,> 2,> 2,> 2,> 10,> 10,> 2
"CC(=O)c1c(SC(C)C)[nH]c2c(Br)ccc(Cl)c2c1=O [Compound 24, 3-acetyl-8-bromo-5-chloro-2-(isopropylthio)quinolin-4(1H)-one]",> 2,> 2,> 2,> 2,> 2,> 10,> 10,> 2

# Further lines, results first:
"IC50 [1, 2] [µM]","IC50 [1, 3] [µM]","IC50 [1, 4] [µM]","IC50 [1, 5] [µM]","IC50 [1, 6] [µM]",IC50 (brain cancer cell lines; [7]) [µM],IC50 (brain cancer cell lines; [8]) [µM],IC50 (brain cancer cell lines; [9]) [µM],Compound
1.83,1.65,1.9,> 2,1.64,> 2,> 10,> 2,"CC(=O)c1c([S+](C)[O-])[nH]c2c(Br)ccc(Cl)c2c1=O (stereo not drawn) [Compound 1, 3-acetyl-8-bromo-5-chloro-2-(methylsulfinyl)quinolin-4(1H)-one]"
> 2,> 2,> 2,> 2,> 2,> 10,> 10,> 2,"CSc1[nH]c2ccc(F)cc2c(=O)c1C(C)=O [Compound 8, 1-(6-fluoro-4-hydroxy-2-(methylthio)quinolin-3-yl)ethan-1-one]"
1.6,1.35,1.59,> 2,1.47,1.26,> 10,> 2,"CC(=O)c1c([S+](C)[O-])n(C(=O)c2ccc(Br)cc2)c2c(Br)ccc(Cl)c2c1=O (stereo not drawn) [Compound 9, 3-acetyl-8-bromo-1-(4-bromobenzoyl)-5-chloro-2-(methylsulfinyl)quinolin-4(1H)-one]"
> 2,> 2,> 2,> 2,> 2,> 10,> 10,> 2,"CC(=O)c1c(Sc2ccccc2)[nH]c2c(Br)ccc(Cl)c2c1=O [Compound 12, 3-acetyl-8-bromo-5-chloro-2-(phenylthio)quinolin-4(1H)-one]"
> 2,> 2,> 2,> 2,–,> 10,> 10,> 2,"CC(=O)c1c([S+]([O-])c2ccccc2)[nH]c2c(Br)ccc(Cl)c2c1=O (stereo not drawn) [Compound 13, 3-acetyl-8-bromo-5-chloro-2-(phenylsulfinyl)quinolin-4(1H)-one]"
> 2,> 2,> 2,> 2,–,> 10,> 10,> 2,"CC(=O)c1c([S+]([O-])c2ccc(Br)cc2)[nH]c2c(Br)ccc(Cl)c2c1=O (stereo not drawn) [Compound 17, 3-acetyl-8-bromo-2-((4-bromophenyl)sulfinyl)-5-chloroquinolin-4(1H)-one]"
> 2,> 2,> 2,> 2,> 2,> 10,> 10,> 2,"CC(=O)c1c([S+]([O-])C(C)C)[nH]c2c(Br)ccc(Cl)c2c1=O (stereo not drawn) [Compound 25, 3-acetyl-8-bromo-5-chloro-2-(isopropylsulfinyl)quinolin-4(1H)-one]"
> 2,> 2,> 2,> 2,–,> 2,> 2,> 2,"CC(=O)c1c([S+]([O-])C(C)c2ccccc2)[nH]c2c(Br)ccc(Cl)c2c1=O (stereo not drawn) [Compound 26, 3-acetyl-8-bromo-5-chloro-2-((1-phenylethyl)sulfinyl)quinolin-4(1H)-one]"

# From US11464770B2, “Anticancer pharmaceutical composition” (NATIONAL CANCER CENTER, priority 2016, dated 2022)
